According to patent publication US7820689B2, “Methods and compositions for preventing or treating cardiovascular disease” (priority 2006, dated 2010):

Experiments:
[1] = system: IL-6 release from THP-1 cells after LPS stimulation; assay: LPS-induced IL-6 release in THP-1 macrophage culture (ELISA); type: cell-based, human
Description: (§1) THP-1 cells were grown in the RPMI-1640 medium containing 10% fetal bovine serum at 37° C. in 5% CO2. The cells were differentiated to macrophages after treatment of the culture with 100 nM PMA for 24 hours. The cell suspension (5×10^5) was added in 0.5 mL into each well of the tissue culture plates. For each experiment, naloxone was prepared immediately before use. LPS was dissolved in sterile water and stored at −70° C. in aliquots. LDL was isolated from human endotoxin-free heparin plasma and was oxidized using CuSO4. In brief, LDL (1 mL, 1 mg/mL) was dialyzed in 500 mL phosphate-buffered saline (PBS, pH 7.4) overnight. Copper sulfate was added to a final concentration of 5 μM, and the LDL was allowed to oxidize at room temperature for 24 hours.
(§2) The supernatants were harvested and the TNF-α, IL-6, and MCP-1 levels were determined by ELISA. Superoxide production in the THP-1 cell culture was measured by lucigenin-enhanced chemiluminescence as described previously (Khadour F H, Panas D, Ferdinandy P, et al. Am J Physiol Heart Circ Physiol, 28:H1108-15 2002). LPS-treated THP-1 cells were treated with PBS containing 1.25 mM lucigenin, and counts were obtained for a 10-minute period in a luminometer (Berthold Technologies, Germany) as relative light units (RLU) emitted. Background counts determined in cell-free preparations were subtracted. Superoxide levels were reported as RLU per 10 minutes and were normalized to the volume (mL) of cell suspension added (i.e., RUL/10 min/mL).

[2] = system: superoxide production in PMN; assay: Superoxide production in PMN of apoE-deficient mice, lucigenin chemiluminescence; type: in vivo; conditions: controls 519,000±115,000
Description: ApoE-deficient mice were treated daily with DM 5 mg/kg/day (n=9), 10 mg/kg/day (n=9), 20 mg/kg/day (n=9) or 40 mg/kg/day (n=11) for 10 weeks. Production of superoxide in PMN (1×10^6 cells/mL PBS) (A) was measured by lucigenin-enhanced chemiluminescence. The results are expressed as mean±SD. (P<0.05, control versus 10 mg/kg/day; P<0.001, control versus 20 mg/kg/day and 40 mg/kg/day). Production of superoxide in the thoracic aorta (B) was also measured by lucigenin-enhanced chemiluminescence. The results are expressed as mean±SD. (P<0.05, control versus 10 mg/kg/day and 40 mg/kg/day; P<0.01, control versus 20 mg/kg/day).
(§3) Having established the DM inhibitory effect on macrophage activation and NADPH oxidase, we next examined the functional consequences of which in vivo. […] Sections of left carotid arteries from the mice were stained with DHE and then imaged with a laser scanning confocal microscope.

[3] = system: IL-6 release from THP-1 cells after oxLDL stimulation; assay: oxLDL-induced IL-6 release in THP-1 macrophage culture (ELISA); type: cell-based, human
Description: as §1, §2

[4] = system: superoxide production in left carotid arteries; assay: Superoxide in left common carotid artery of apoE-deficient mice, DHE staining; type: in vivo
Description: Representative photomicrographs of the […] sections in apoE-deficient mice were treated daily with water only (A) or DM 5 mg/kg/day (B), 10 mg/kg/day (C), 20 mg/kg/day (D) or 40 mg/kg/day (E) for 10 weeks. […] The results are representative of 4 independent experiments with 6-8 independently analyzed mice/group. (bar=50 μm)
as §3

[5] = system: NADPH oxidase-deficient mice; conditions: Zhang et al. 2004; cited from earlier work
[6] = system: superoxide production in THP-1 cell culture; assay: LPS-induced macrophage superoxide production, lucigenin-enhanced chemiluminescence; type: cell-based, human
Description: as §1, with “For each experiment, naloxone was prepared immediately before use.” left out
as §2
We used lucigenin-enhanced chemiluminescence to assess the DM effect on macrophage superoxide production after stimulation.

[7] = system: TNF-α production from the THP-1 cell culture after LPS stimulation; assay: LPS-induced TNF-α production in PMA-differentiated THP-1 macrophage culture (ELISA); type: cell-based, human; conditions: for TNF-α in medium: LPS, LPS alone 8.85±0.81; for TNF-α production after LPS: 1 h before 100 ng/mL LPS, 24 h

Q: For `COc1ccc2c(c1)[C@]13CCCC[C@@H]1[C@H](C2)N(C)CC3` [DM, (+)-3-methoxy-17-methyl-9α,13α,14α-morphinan], which IL-6 in medium ([1]; DM 0.01 μM pretreatment, LPS alone 9.53±1.95) is on record?
A: 6.22 ± 2.46 ng/mL

Q: What about the IL-6 in medium ([1]; DM 0.1 μM pretreatment, LPS alone 9.53±1.95) of the same compound?
A: 6.21 ± 1.89 ng/mL

Q: And the IL-6 in medium ([1]; DM 1 μM pretreatment, LPS alone 9.53±1.95)?
A: 5.36 ± 1.76 ng/mL

Q: What about the “PMN production of superoxide” value ([2]; 5 mg/kg/day 10 weeks, P=NS) of the same compound?
A: 460,000±138,000 RLU/15 min

Q: What about the “PMN production of superoxide” value ([2]; 10 mg/kg/day 10 weeks) of the same compound?
A: 390,000±63,000 RLU/15 min

Q: What about the “PMN production of superoxide” value ([2]; 20 mg/kg/day 10 weeks) of the same compound?
A: 328,000±82,000 RLU/15 min

Q: What about the “PMN production of superoxide” value ([2]; 40 mg/kg/day 10 weeks) of the same compound?
A: 328,000±82,000 RLU/15 min

Q: And the IL-6 in medium ([3]; DM 0.01 μM pretreatment, oxLDL alone 2.46±1.20)?
A: 1.40 ± 0.58 ng/mL

Q: What about the IL-6 in medium ([3]; DM 0.1 μM pretreatment, oxLDL alone 2.46±1.20) of the same compound?
A: 1.28 ± 0.64 ng/mL

Q: What about the IL-6 in medium ([3]; DM 1 μM pretreatment, oxLDL alone 2.46±1.20) of the same compound?
A: 1.33 ± 0.67 ng/mL

Q: And the “DHE staining (superoxide), FIG. 14” value ([4]; DM 5, 10, 20 or 40 mg/kg/day for 10 weeks vs water only)?
A: staining was much more reduced

Q: And the “DHE fluorescence intensity in sections of left carotid arteries (superoxide)” value ([4]; DM 10, 20, and 40 mg/kg/day for 10 weeks)?
A: significantly reduced the increase of fluorescence intensity

Q: And the anti-inflammatory effect [5]?
A: anti-inflammatory effect was not observed

Q: What about the macrophage superoxide production ([6]; DM 0.01 μM pretreatment, LPS alone 612,000±105,000) of the same compound?
A: 341,000±82,000 RLU/15 min/mL

Q: And the macrophage superoxide production ([6]; DM 0.1 μM pretreatment, LPS alone 612,000±105,000)?
A: 303,000±109,000 RLU/15 min/mL

Q: And the macrophage superoxide production ([6]; DM 1 μM pretreatment, LPS alone 612,000±105,000)?
A: 257,000±45,000 RLU/15 min/mL

Q: What about the TNF-α in medium ([7]; DM 0.1 μM pretreatment) of the same compound?
A: 6.42 ± 0.73 ng/mL

Q: And the TNF-α in medium ([7]; DM 1 μM pretreatment)?
A: 5.85 ± 1.12 ng/mL

Q: What about the “TNF-α production after LPS” value ([7]; DM pretreatment 10^−1 μM) of the same compound?
A: 72 ± 2 % control

Q: And the “TNF-α production after LPS” value ([7]; DM pretreatment 10^−4 μM)?
A: 81 ± 9 % control

Q: And the “TNF-α production after LPS” value ([7]; DM pretreatment 10^−8 μM)?
A: 95 ± 7 % control

Q: Which results are given for `C=CCN1CC[C@]23c4c5ccc(O)c4O[C@H]2C(=O)CC[C@@]3(O)[C@H]1C5` [Naloxone, 17-allyl-4,5α-epoxy-3,14-dihydroxymorphinan-6-one]?
A: IL-6 in medium ([1]; 0.01 μM pretreatment, LPS alone 5.02±0.14): 3.74 ± 0.31 ng/mL; IL-6 in medium ([1]; 0.1 μM pretreatment, LPS alone 5.02±0.14): 3.28 ± 0.14 ng/mL; IL-6 in medium ([1]; 1 μM pretreatment, LPS alone 5.02±0.14): 3.44 ± 0.48 ng/mL; IL-6 in medium ([3]; 0.01 μM pretreatment, oxLDL alone 1.51±0.08): 1.05 ± 0.03 ng/mL; IL-6 in medium ([3]; 0.1 μM pretreatment, oxLDL alone 1.51±0.08): 1.01 ± 0.01 ng/mL; IL-6 in medium ([3]; 1 μM pretreatment, oxLDL alone 1.51±0.08): 1.05 ± 0.07 ng/mL; macrophage superoxide production ([6]; 0.1 μM pretreatment, LPS alone 817,000±90,000): 364,000±202,000 RLU/10 min/mL; macrophage superoxide production ([6]; 1 μM pretreatment, LPS alone 817,000±90,000): 362,000±24,000 RLU/10 min/mL; TNFα in medium ([7]; 0.01 μM pretreatment, LPS 100 ng/mL, LPS alone 8.02±0.42): 4.28 ± 0.39 ng/mL; most effective naloxone concentration range ([7]; inhibition of TNF-α production, THP-1, LPS): 0.01 to 1 µM; TNF-α production after LPS ([7]; naloxone pretreatment 1 μM): 55 ± 2 % control; TNF-α production after LPS ([7]; naloxone pretreatment 10^−1 μM): 51 ± 6 % control; TNF-α production after LPS ([7]; naloxone pretreatment 10^−2 μM): 53 ± 6 % control; TNF-α production after LPS ([7]; naloxone pretreatment 10^−3 μM): 67 ± 3 % control; TNF-α production after LPS ([7]; naloxone pretreatment 10^−4 μM): 74 ± 7 % control; TNF-α production after LPS ([7]; naloxone pretreatment 10^−5 μM): 93 ± 4 % control; TNF-α production after LPS ([7]; naloxone pretreatment 10^−6 μM): 90 ± 10 % control
